We go through 9 substances from patent publication US20250085295A1, “METHODS FOR MEASURING INTERACTIONS BETWEEN PROTEINS COMPRISING AN FC PORTION AND PARTICLES” (NANOTEMPER TECHNOLOGIES GMBH, priority 2023, published 2025).

In one data set the target is IgG antibody. The note with it: literature DOI cited; read-out: affinity of Fc-binding peptide to IgG antibody; cited from earlier work.
Data set [1] deals with Trastuzumab. Put plainly: TRIC signal at 670 nm, dose-response of fluorescent peptide tracer vs Trastuzumab. In kind it is binding. Particulars: 2.4 nM peptide, Trastuzumab dilution series, IR laser heating 5 s, FIGS. 3 and 4. The method, then:
(§1) The fluorescent peptide tracer was dissolved in 100% DMSO to obtain stock solutions of 2.4 mM for FcIII and FcT. Subsequently, 16 or 24 point 1-to-1 dilution series of unlabeled Trastuzumab antibodies with stock concentrations of 825 µM were prepared leading to final assay concentrations of 2062.5 nM for Trastuzumab and a FCT and FcIII concentration of 2.4 nM. Samples were loaded into Dianthus 384-well plates (DI-P001A, NanoTemper Technologies) or polymer-coated borosilicate glass capillaries (Monolith NT.115 Premium Capillaries, MO-K025, NanoTemper Technologies). Measurements were taken with Nano Temper Software (MO.Control 2, DI.Control) by excitation at 591 nm and recording of fluorescence traces at 650 nm and 670 nm. For results showing TRIC results, simultaneous induction heat via an IR laser was induced and the thermophoretic behavior recorded for 5s.

In data set [2] the target is Trastuzumab. Put plainly: Spectral shift (SpS, 670/650 nm ratio) dose-response of fluorescent peptide tracer vs Trastuzumab. In kind it is binding. The note with it: for binding affinity of fluorescent peptide to Trastuzumab, spectral shift response (SpS): 2.4 nM peptide, Trastuzumab dilution series up to 2062.5 nM, excitation 591 nm, 650/670 nm, FIGS. 1 and 2. The method, then: as §1
To evaluate the importance of the right affinity for this labeling approach, also a fluorescent peptide tracer was designed based on previously published findings based on a combinatorial tetrapeptide library (Camperi et al., Biotechnol Lett (2003), 25:1545-1548). To this end, the tetrapeptide APAR, which was previously found to bind to Immunoglobulin G was synthesized with an N-terminal lysine to accommodate further conjugation with Cy5 dye. The resulting fluorescent peptide tracer Cy5-KAPAR (cf. SEQ ID NO: 9) was dissolved in 100% DMSO to obtain stock solutions of 4.96 mM. The stock solution was further diluted in PBS-P. Subsequently 24 point 1-to-1 dilution series of unlabeled Trastuzumab antibody with stock concentrations of 825 μM were prepared leading to final assay concentrations of 412 μM for Trastuzumab and a Cy5-KAPAR (cf. SEQ ID NO: 9) concentration of 2.5 nM. Samples were loaded into Dianthus 384-well plates (DI-P001A, NanoTemper Technologies). Measurements were taken with Nano Temper Software (DI.Control) by excitation at 591 nm and recording of fluorescence traces at 650 nm and 670 nm. […] Such affinities result in required assay concentrations of over 100 μM in ligand-binding assays, which can hardly be achieved due to antibody solubility and availability. Furthermore, only affinities lower than the used concentration of antibody could reliable be determined, severely limiting the approach.

Data set [3] deals with T1, Her2/ERBB2 Protein, Human, Recombinant (ECD, His Tag) (Homo sapiens, UniProt P04626).
T1 construct: Her2/ERBB2 Protein, Human, Recombinant (ECD, His Tag); His tag; purchased Sino Biological 10004-H08H
Put plainly: Interaction of Her2 with labeled Trastuzumab in TRIC 670 nm. It is filed as binding. Particulars: 4 nM Trastuzumab, 2.4 nM tracer, Her2 up to 220 nM; FIGS. 6 and 8. The method, then: (§2) The fluorescent peptide tracer was dissolved in 100% DMSO to obtain stock solutions of 2.4 mM for FcIII and FcT. Peptide tracers were mixed with 8 nM Trastuzumab and incubated for 15 min. Subsequently, 16 or 24 point 1-to-1 dilution series of Her2 were prepared and mixed 1:1 with prepared peptide: trastuzumab dilution, leading to final assay concentrations of 4 nM for Trastuzumab, 2.4 nM FcT and FcIII, and 220 nM as highest in-assay concentration of Her2. Samples were loaded into Dianthus 384-well plates (DI-P001A, NanoTemper Technologies) or polymer-coated borosilicate glass capillaries (Monolith NT.115 Premium Capillaries, MO-K025, NanoTemper Technologies). Measurements were taken with Nano Temper Software (MO.Control 2, DI.Control) by excitation at 591 nm and recording of fluorescence traces at 650 nm and 670 nm. For results showing TRIC results, simultaneous heat via an IR laser was induced and the thermophoretic behavior recorded for 5s.
(§3) For NHS labeling of Trastuzumab, NHS labeling kit 2nd generation (NanoTemper Technologies) was used. In short, Trastuzumab was exchanged into NHS labeling buffer and mixed with NHS-NTT dye. After incubation in the dark for 30 min, unreacted dye was separated using a B-column provided with the kit. Eluting fractions containing 2.5 µM labeled Trastuzumab were collected and stored at −80° C.

Data set [4] addresses T1, Her2/ERBB2 Protein, Human, Recombinant (ECD, His Tag). Put plainly: Interaction of Her2 with labeled Trastuzumab in spectral shift (SpS). It is filed as binding. The note with it: 4 nM Trastuzumab, 2.4 nM tracer, Her2 up to 220 nM; FIGS. 5 and 7. The method, then:
as §2, §3

The target of a further data set is IgA antibody. The note with it: literature DOI cited; read-out: affinity of Fc-binding peptide to IgA antibody; cited from earlier work.
Data set [5] is described as follows: Thermal unfolding analysis using Fc-peptide labeling (670/650 nm ratio, first derivative). Particulars: free FcIII without antibody, heating 1° C./min; FIG. 14A, 14B. In kind it is physicochemical. The method, then:
The fluorescent peptide tracer was dissolved in 100% DMSO to obtain stock solutions of 2.4 mM for FcIII. […] Samples were loaded into capillaries, excited at 591 nm and fluorescence was recorded at 650 and 670 nm. Samples were heated a rate of 1° C./min while recording fluorescence signals.

pKd: −log10 of the molar value. Some results are limits rather than exact numbers.

In the case of DCAWHLGELVWCT [Fc-III], on IgG antibody, the pKd was 7.60 to 7.80.

Take “[Cyc(2,12)]NTTred-DCAWHLGELVWCT-OH [FcT]”: the “binding affinity of fluorescent peptide to Trastuzumab, TRIC” value on Trastuzumab [1] is “Clear binding with nanomolar affinities”. Moreover, the “binding affinity of fluorescent peptide to Trastuzumab, spectral shift response (SpS)” value at Trastuzumab [2] is on record as “Clear binding with nanomolar affinities”. Also, the “binding of Her2 to Trastuzumab labeled with the peptide tracer, TRIC signal dose-response” value in data set [3] is recorded as “clearly show the binding of Her2”. For the same substance, the “binding of Her2 to Trastuzumab labeled with the peptide tracer, spectral shift dose-response” value in data set [4] is “clearly show the binding of Her2”. For the substance L-Pro DCAWHLGELVWCT D-Pro [FcBP2], the pKd on IgG antibody is 8.74. In the case of KHRFNKD, on IgG antibody, the pKd is 7.70. On to HQVCLSYRGRPVCFST, for which the pKd at IgA antibody was 7.14. Consider RRGW, for which the pKd at IgG antibody was 9.30. Consider “low affinity fluorescent peptide tracer, tetrapeptide APAR with N-terminal lysine conjugated with Cy5 (cf. SEQ ID NO: 9) [Cy5-KAPAR, Cy5-KAPAR-OH]”, for which, in the data set with Trastuzumab [2] (2.5 nM Cy5-KAPAR, Trastuzumab up to 412 μM), the “ratiometric change in the 670/650 nm fluorescence upon binding of Trastuzumab” value was “large ratiometric change”. Further, the pKd on Trastuzumab [2] (2.5 nM Cy5-KAPAR, Trastuzumab up to 412 μM, spectral shift 670/650 nm, read-out: affinity to Trastuzumab (estimated, saturation not reached)) is less than 4.22.

As for “[Cyc(2,12)]Cy5-DCAWHLGELVWCT-NH2 [FcIII]”, the “binding affinity of fluorescent peptide to Trastuzumab, TRIC” value on Trastuzumab [1] is “Clear binding with nanomolar affinities”. Further, the “binding affinity of fluorescent peptide to Trastuzumab, spectral shift response (SpS)” value on Trastuzumab [2] is on record as “Clear binding with nanomolar affinities”. For the same substance, the “binding of Her2 to Trastuzumab labeled with the peptide tracer, TRIC signal dose-response” value in data set [3] is “clearly show the binding of Her2”. Also, the “thermal profile, unfolding events in the first derivative” value in data set [5] is recorded as “no distinct unfolding events”. In addition, in data set [4], the “binding of Her2 to Trastuzumab labeled with the peptide tracer, spectral shift dose-response” value is listed as “clearly show the binding of Her2”. As for CDCAWHLGELVWCTC [Fc-III-4C], the pKd at IgG antibody was 8.60.
